Values quoted from earlier work as cited in US10302625B2, “Peripheral measure of central brain inflammation, markers therefor and uses thereof” (CENTRE FOR ADDICTION AND MENTAL HEALTH, priority 2015, dated 2019).

Molecular target: T1, TSPO (Sus scrofa, UniProt Q6UN27)
T1 sequence (Q6UN27 1-169): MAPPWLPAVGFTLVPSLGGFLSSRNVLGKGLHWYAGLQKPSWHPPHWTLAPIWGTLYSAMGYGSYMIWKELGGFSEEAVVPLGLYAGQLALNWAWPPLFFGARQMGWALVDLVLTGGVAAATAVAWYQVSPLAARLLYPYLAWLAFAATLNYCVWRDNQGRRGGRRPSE
Conditions: literature ref 19

CC(=O)N(Cc1ccccc1OCC[18F])c1cnccc1Oc1ccccc1 [[18F]FEPPA]
affinity for TSPO: high, selective affinity for TSPO
